Results: ChEMBL document CHEMBL1133432, “Probes for imidazoline binding sites: synthesis and evaluation of a selective, irreversible I2 ligand” (Bioorg Med Chem Lett, 2000)

Legend:
[1] = target: T1, Adrenergic receptor alpha-2 (Rattus norvegicus, UniProt P22086+P19328+P22909); experiment: Inhibition of 1 nM [3H]RX-821002 binding to rat whole brain membrane Alpha-2 adrenergic receptors
T1 sequence (P22086 whole entry): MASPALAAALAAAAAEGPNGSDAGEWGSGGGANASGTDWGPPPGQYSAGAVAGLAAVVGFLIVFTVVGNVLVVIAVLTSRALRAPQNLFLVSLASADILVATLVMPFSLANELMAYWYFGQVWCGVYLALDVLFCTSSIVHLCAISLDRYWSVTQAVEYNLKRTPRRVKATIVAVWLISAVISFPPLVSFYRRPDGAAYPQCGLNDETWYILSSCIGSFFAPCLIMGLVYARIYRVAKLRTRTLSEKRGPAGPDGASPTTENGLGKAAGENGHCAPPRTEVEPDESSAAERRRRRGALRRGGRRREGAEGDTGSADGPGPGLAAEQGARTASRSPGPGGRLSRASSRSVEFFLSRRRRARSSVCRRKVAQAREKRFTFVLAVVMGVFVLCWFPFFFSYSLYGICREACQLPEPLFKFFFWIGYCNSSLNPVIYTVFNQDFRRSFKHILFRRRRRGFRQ
T1 sequence (P19328 whole entry): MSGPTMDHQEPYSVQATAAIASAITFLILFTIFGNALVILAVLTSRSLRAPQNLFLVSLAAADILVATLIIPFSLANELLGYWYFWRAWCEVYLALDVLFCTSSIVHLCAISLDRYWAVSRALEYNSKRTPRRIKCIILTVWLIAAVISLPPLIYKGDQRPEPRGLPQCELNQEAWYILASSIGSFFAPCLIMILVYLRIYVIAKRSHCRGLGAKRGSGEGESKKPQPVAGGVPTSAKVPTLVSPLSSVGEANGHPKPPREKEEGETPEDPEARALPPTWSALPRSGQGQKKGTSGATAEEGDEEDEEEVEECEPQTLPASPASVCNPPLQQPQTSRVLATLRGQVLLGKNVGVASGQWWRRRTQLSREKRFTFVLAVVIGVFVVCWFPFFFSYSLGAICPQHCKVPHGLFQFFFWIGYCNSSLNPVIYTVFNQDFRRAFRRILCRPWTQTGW
T1 sequence (P22909 whole entry): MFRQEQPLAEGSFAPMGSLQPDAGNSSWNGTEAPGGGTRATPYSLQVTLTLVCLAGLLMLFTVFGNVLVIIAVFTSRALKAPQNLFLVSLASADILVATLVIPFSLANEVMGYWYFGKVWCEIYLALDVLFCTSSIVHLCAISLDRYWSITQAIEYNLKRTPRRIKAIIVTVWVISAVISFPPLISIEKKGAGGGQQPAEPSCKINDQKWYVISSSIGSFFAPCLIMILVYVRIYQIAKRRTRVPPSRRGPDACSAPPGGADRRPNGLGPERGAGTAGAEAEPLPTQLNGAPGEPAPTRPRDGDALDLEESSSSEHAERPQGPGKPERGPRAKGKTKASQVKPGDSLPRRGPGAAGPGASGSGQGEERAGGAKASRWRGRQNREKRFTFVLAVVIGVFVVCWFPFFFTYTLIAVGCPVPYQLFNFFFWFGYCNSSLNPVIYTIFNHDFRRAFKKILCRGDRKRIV

[2] = Inhibition of 1 nM [3H]2-BFI binding to rat whole brain membrane imidazoline receptor I-2

c1ccc2oc(C3=NCCN3)cc2c1
Ki [1]: 1900 nM
Ki [2]: 1.7 nM

N#CSc1ccc2oc(C3=NCCN3)cc2c1
Ki [1]: 16300 nM
Ki [2]: 2.3 nM
